Results as given in patent US20240254123A1, “PYRIDOPYRIMIDINE DERIVATIVES USEFUL AS WEE1 KINASE INHIBITORS” (APREA THERAPEUTICS, INC., priority 2021, published 2024).

Experiments:
PLK1 = PLK1 (Homo sapiens, UniProt P53350); experiment: in vitro enzymatic inhibitory activity, PLK1 kinase, 10-dose IC50 mode; type: biochemical; conditions: 10 μM ATP
Method: (§1) Compounds were tested against two kinases.
(§2) Data includes raw data, % Enzyme activity (relative to DMSO controls) and curve fits.

WEE1 [1] = biological target: T1, WEE1 (Homo sapiens, UniProt P30291); experiment: Guava flow cytometry cell cycle assay (DNA content per cell, propidium iodide); type: cell-based
T1 construct: Drug treated cells are fixed and stained with propidium iodide (PI); endogenous in cells
Text: In this example, compounds described herein were subject to an assay that detects changes the phases of the cell cycle upon drug treatment, permitting the identification of drugs that affect cell proliferation in a specific manner. For example, problematic DNA replication causes the percentage of cells in S phase to increase. Thus, quantification of cells in S phase permits identification of drugs that cause defects in DNA replication. Similarly, drugs that selectively defects in progression through G2/M can also be identified. Moreover, synergy between assayed drugs and known cell cycle regulators can be determined, as exemplified by the effect of ATR inhibition when combined with agents that slow DNA replication, which causes replication fork collapse into DSBs and complete loss of DNA synthesis. Two novel drugs can also be combined to quantify synergistic effects on specific cell cycle phases.
The assay operates by the quantification of DNA content per cell by flow cytometry. Cells are assessed for effects on cell cycle using a Guava EasyCyte™ flow cytometer (Austin, TX). Drug treated cells are fixed and stained with propidium iodide (PI) and resuspended in phosphate-buffered saline containing the PI staining buffer. During flow cytometry, PI is excited at 528 nm and is detected in a 610/20 bandpass. Readout of the […] is optical density of DNA-staining dye. The assay generates a histogram showing count of cells by amount of DNA, which is an indicator of place in the cell cycle. This rapid assay detects relative changes in the cell cycle upon drug treatment upon comparison vehicle-treated and single-agent controls for detection of combinatorial interactions. See, Table 4.

WEE1 [2] = biological target: T1, WEE1; experiment: in vitro enzymatic inhibitory activity, WEE1 kinase, 10-dose IC50 mode; type: biochemical; conditions: 10 μM ATP
Method: as §1, §2

T1 sequence (P30291 whole entry): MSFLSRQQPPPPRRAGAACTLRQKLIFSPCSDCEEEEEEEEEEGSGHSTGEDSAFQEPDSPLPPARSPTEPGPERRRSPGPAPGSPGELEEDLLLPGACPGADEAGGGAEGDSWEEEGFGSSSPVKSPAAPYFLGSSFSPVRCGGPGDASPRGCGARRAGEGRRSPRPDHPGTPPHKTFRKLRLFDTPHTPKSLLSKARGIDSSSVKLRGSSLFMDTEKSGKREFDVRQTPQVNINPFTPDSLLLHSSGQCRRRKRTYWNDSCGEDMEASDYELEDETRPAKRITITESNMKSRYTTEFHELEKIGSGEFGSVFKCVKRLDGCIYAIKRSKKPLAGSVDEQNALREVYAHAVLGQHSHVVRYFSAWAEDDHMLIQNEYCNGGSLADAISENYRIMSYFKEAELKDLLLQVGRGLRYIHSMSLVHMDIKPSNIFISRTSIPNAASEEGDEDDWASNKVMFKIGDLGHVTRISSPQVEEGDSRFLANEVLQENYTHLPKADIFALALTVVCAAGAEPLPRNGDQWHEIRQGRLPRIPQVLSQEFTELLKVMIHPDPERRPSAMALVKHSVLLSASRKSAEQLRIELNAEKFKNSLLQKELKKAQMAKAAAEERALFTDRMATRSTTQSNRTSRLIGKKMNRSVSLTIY
Chain of PLK1 (P53350 whole entry, species assumed): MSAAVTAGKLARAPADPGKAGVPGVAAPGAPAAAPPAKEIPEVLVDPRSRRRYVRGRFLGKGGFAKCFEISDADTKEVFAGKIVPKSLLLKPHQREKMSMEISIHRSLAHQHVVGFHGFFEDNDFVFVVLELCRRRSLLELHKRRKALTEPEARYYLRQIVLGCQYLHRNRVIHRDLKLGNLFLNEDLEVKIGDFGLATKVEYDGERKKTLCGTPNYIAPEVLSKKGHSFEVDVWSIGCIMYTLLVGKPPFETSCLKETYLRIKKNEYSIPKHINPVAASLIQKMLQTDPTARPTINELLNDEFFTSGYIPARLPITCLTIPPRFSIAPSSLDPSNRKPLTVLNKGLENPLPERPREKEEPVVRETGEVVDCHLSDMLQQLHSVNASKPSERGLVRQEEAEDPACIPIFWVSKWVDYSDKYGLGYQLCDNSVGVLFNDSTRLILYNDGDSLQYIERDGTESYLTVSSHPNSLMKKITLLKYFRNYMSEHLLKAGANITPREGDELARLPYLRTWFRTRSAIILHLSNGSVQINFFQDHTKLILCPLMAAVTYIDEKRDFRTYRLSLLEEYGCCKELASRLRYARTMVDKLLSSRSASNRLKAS

Row | IC50 (PLK1) [nM] | WEE1 Guava MEC Guava MEC (WEE1 [1]; single agent, unit assumed) [µM] | WEE1 Guava MEC with 20 nM GEM (WEE1 [1]; with 20 nM GEM, in µM (unit assumed)) | IC50 (WEE1 [2]) [nM] | Structure (SMILES)
1 | 159 | – | – | – | C=CCn1c(=O)c2cnc(Nc3ccc(N4CCN(C)CC4)cc3)nc2n1-c1cccc(C(C)(C)O)n1 [AZD1775]
2 | – | 0.313 | 0.156 | 31 | CN1CCc2ccc(Nc3ncc4c(=O)n(-c5c(Cl)cccc5Cl)cc(Br)c4n3)cc2C1 [Compound P11, 8-bromo-6-(2,6-dichlorophenyl)-2-[(2-methyl-3,4-dihydro-1H-isoquinolin-7-yl)amino]pyrido[4,3-d]pyrimidin-5-one]
